Columns and labels:
Experiment in all cases: Solution binding ELISA
[1] = molecular target: hNGAL muteins from affinity optimization of SEQ ID NO: 55 (Homo sapiens, UniProt P80188); settings: compared with SEQ ID NO: 55
Procedure: Solution binding of muteins was assayed by a “Solution binding ELISA”, the principle of which was as follows: a constant concentration of the tested mutein was incubated with variable concentrations of ligands (Pvd I s, sa, αKG+/−Fe/Pvd II s, sa, αKG+/−Fe/Pvd III s, sa, αKG+/−Fe/Pch+/−Fe) for 1 h. After this pre-incubation in solution, an aliquot of the mutein/ligand mixture was transferred to an ELISA plate with biotinylated Pvd I s (+Fe), Pvd II s (+Fe), Pvd III s (+Fe) or Pch immobilized via Neutravidin to measure the remaining concentration of free muteins. The concentration of free (non ligand-bound) muteins was determined via a quantitative ELISA setup.
In detail, a 384-well plate suitable for fluorescence measurements (Greiner FLUOTRAC™ 600, black flat bottom, high-binding) was coated with 20 μl of Neutravidin at a concentration of 5 μg/ml in PBS overnight at 4 C. After washing, the Neutravidin-coated wells were blocked with 100 μl blocking buffer containing 0.1% Tween 20 and 2% BSA (PBS-T/BSA) for 1 h at room temperature.
A fixed concentration of muteins was incubated in solution with varying concentrations of ligand (Pvd I s, sa, αKG+/−Fe/Pvd II s, sa, αKG+/−Fe/Pvd III s, sa, αKG+/−Fe/Pch+/−Fe), using a suitable starting concentration which was serially diluted at a 1:3 ratio down to the picomolar range in PBS-T/BSA. […] To allow for transformation of ELISA readout results into absolute free mutein concentrations, a standard curve containing varying concentrations of muteins was prepared in PBS-T/BSA and incubated for 20 min on the same ELISA plate as well.
The residual supernatants were discarded and 20 μl HRP-labeled anti-hNGAL antibody was added at a predetermined optimal concentration in PBS-T/BSA and incubated for 1 h at RT. […] The fluorescence intensity of every well on the plate was read using a fluorescence microplate reader (Tecan or Molecular Devices). To evaluate the data, free mutein concentration, c(mutein)free, was calculated based on the standard curve results, and plotted versus ligand concentration, c(Ligand). […]

[2] = molecular target: T1, hNGAL (human lipocalin 2, parent wild type SEQ ID NO: 1) mutein SEQ ID NO: 57 (Homo sapiens, UniProt P80188, A60Y/C107S/D97R/I61W/K145L/K154N/K93R/L123Q/L56V/L90R/N116P/Q48H/Q69A/R101W/R92W/S147R/S88D/W99D/Y120E/Y126R/Y152A)
T1 construct: made in house; host or cells: E. coli
Procedure: (§1) The residual supernatants were discarded and 20 μl HRP-labeled anti-hNGAL antibody was added at a predetermined optimal concentration in PBS-T/BSA and incubated for 1 h at RT. […] After washing, 20 μl fluorogenic HRP substrate (QuantaBlu, Thermo) was added to each well, and the reaction was allowed to proceed for 15 to 60 minutes. The fluorescence intensity of every well on the plate was read using a fluorescence microplate reader (Tecan or Molecular Devices). […] Curve fitting was performed using GraphPad Prism 4 software.

[3] = molecular target: T2, hNGAL (human lipocalin 2, parent wild type SEQ ID NO: 1) mutein SEQ ID NO: 56 (Homo sapiens, UniProt P80188, A60F/C107S/D97A/I61H/K145G/K154V/K93A/L123M/L56M/L90P/N116A/Q48H/Q69S/R101I/R92W/S147W/S88H/W99K/Y120G/Y126W/Y152T/Y72P)
T2 construct: made in house; host or cells: E. coli
T2 sequence (P80188 21-198 with the stated changes): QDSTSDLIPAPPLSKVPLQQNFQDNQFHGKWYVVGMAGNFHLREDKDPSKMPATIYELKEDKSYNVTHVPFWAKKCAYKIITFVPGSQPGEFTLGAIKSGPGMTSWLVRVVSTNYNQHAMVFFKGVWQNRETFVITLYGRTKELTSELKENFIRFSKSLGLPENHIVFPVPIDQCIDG
Procedure: as §1

Sequence of hNGAL muteins from affinity optimization of SEQ ID NO: 55 (P80188 21-198, stated change not applied): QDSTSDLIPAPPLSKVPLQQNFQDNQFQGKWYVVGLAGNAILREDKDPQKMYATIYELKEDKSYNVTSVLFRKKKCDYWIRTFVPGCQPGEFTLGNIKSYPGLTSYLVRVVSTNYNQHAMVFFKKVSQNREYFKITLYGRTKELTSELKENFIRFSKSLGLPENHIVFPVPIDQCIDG
T1 sequence (P80188 21-198 with the stated changes): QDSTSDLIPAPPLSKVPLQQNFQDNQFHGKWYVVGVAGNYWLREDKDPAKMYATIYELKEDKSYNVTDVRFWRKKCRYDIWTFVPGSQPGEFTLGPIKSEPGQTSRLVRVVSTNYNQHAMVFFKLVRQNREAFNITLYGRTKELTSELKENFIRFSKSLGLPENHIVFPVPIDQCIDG

With `CN1C([C@H]2CSC(c3ccccc3O)=N2)SC[C@H]1C(=O)O` (stereo partly drawn) [pch (−Fe), pyochelin] the improved affinity [1] was “more than 75 fold”, the “affinity (in words)” value [2] was “weak affinity or not at all” and the “affinity (in words)” value [3] was “weak affinity or not at all”.

Source: patent US10947284B2, “Fusion molecules” (Pieris Pharmaceuticals GMBH, priority 2015, dated 2021)
